# Source: US20220265606A1, “ANTICANCER AGENTS” (The Texas A&M University System, priority 2019, published 2022)
# Like-named read-outs stand apart in the source and are kept apart here.
# Columns and labels:
# [1] = target: NR4A2 ligand binding domain (LBD) (Homo sapiens, UniProt P43354); experiment: Ligand-induced quenching of NR4A2 LBD tryptophan fluorescence
# Description: Quenching of NR4A1 Tryptophan Fluorescence by Direct Ligand Binding. Tryptophan fluorescence spectra were obtained as described herein. Briefly, histidine-tagged ligand binding domain (LBD) of NR4A1 at a final concentration of 0.5 μmol/L in 1.0 mL of phosphate-buffered saline (PBS, pH 7.4) was used for fluorescence measurements. The protein was incubated for 3 min at 25 °C in a temperature-controlled (Quantum Northwest TC125) fluorescence spectrophotometer (Varian Cary Eclipse). […] Ligand only fluorescence intensity at each ligand concentration was used to correct the NR4A1 tryptophan fluorescence intensity as described in the above references.
# Accordingly, ligand binding assay for NR4A1 and NR4A2 which measures ligand-induced quenching of tryptophan fluorescence by the ligand were developed to further characterize activity with respect to NR4A1 and NR4A2. A tryptophane residue is located in the ligand binding domain (LBD) of both receptors and the LBD of the receptor is used in the binding assay.
# [2] = test system: vasoactive intestinal peptide (VIP) in pancreatic cancer cells; conditions: initial (background) work; cited from earlier work
# 15037 cells = experiment: 3D tumor spheroid invasion assay; conditions: 10 μM, vs DMSO
# Description: Three-Dimensional (3D) Tumor Spheroid Invasion Assay. The cells were suspended in the complete medium (2×10^4 cells/ml). […] The plate was transferred to the incubator for 1 hr and 100 μl of the complete media containing 3 times the desired final concentration of compounds was supplemented and then incubated for 3-5 days followed by fixation in 4% formaldehyde. Spheroid invasion was determined by measuring the cross-sectional areas of the spheroid center and the rim of invaded cells using ImageJ.
# dopaminergic neurons = conditions: in vivo, previous studies; cited from earlier work
# glioblastoma cells [3] = experiment: Measurement of apoptosis (Annexin V staining); type: cell-based, human; conditions: 24 hr
# Description: Measurement of Apoptosis (Annexin V Staining). Cancer cells were seeded at density of 1.5×10^5 per ml in 6 well plates and treated with either vehicle (DMSO) or compounds for 24 hr.
# (§1) Glioblastoma cells were treated with different concentrations of 4-Cl (FIG. 6A), 3-CF3-4-Cl (FIG. 6B), and 2-OH-4-Br (FIG. 6C) and effects on induction of Annexin V were determined as outlined herein. Glioblastoma cells were treated with different concentrations of NR4A2 antagonists and whole cell lysates were analyzed for markers of apoptosis by western blots.
# [4] = previous studies, cited from earlier work
# NR4A2 [5] = test system: NR4A2
# Description: (§2) Transactivation Assay. Cells (8×10^4) per well were plated on 12-well plates in DMEM/F-12 supplemented with 2.5% charcoal-stripped FBS and 0.22% sodium bicarbonate. After 24 h growth, various amounts of DNA [i.e., UASx5-Luc (400 ng), GAL4-Nurr1 (40 ng) and β-gal (40 ng)] were cotransfected into each well by Lipofectamine 2000 reagent (Invitrogen, Carlsbad, Calif.) according to the manufacturer's protocol. After 5-6 hr of transfection, cells were treated with plating media (as above) containing either solvent (DMSO) or the indicated concentration of compounds for 24 hr. Cells were then lysed using a freeze-thaw protocol and 30 μL of cell extract was used for luciferase and β-gal assays. LumiCount (Packard, Meriden, Conn.) was used to quantify luciferase and β-gal activities. Luciferase activity values were normalized against corresponding (3-gal activity values as well as protein concentrations determined by Lowry's Method.
# NR4A2 [6] = conditions: Panc1 / pancreatic cancer cells
# Description: as §2
# [7] = test system: U87-MG cells as xenografts; experiment: Xenograft study; type: in vivo, athymic nu/nu mice
# Description: Xenograft Study. Female athymic nu/nu mice (4-6 weeks old) were purchased from Harlan Laboratories (Houston, TX). U87-MG cells (1×10^6) were harvested in 100 μl of DMEM and suspended in ice-cold Matrigel (1:1 ratio) and s.c. injected to either side of the flank area of the mice. After one week of tumor cell inoculation, mice were divided into two groups of 5 animals each. The first group received 100 μL of vehicle (corn oil), and second group of animals received an injection of 30 mg/kg/day of C-DIM 12 in 100 μl volume of corn oil by i.p. for three weeks. All mice were weighed once a week over the course of treatment to monitor changes in body weight. Tumor volumes could not be determined over the period of treatment because xenografted tumors were relatively deep. After three weeks of treatment, mice were sacrificed and tumor weights were determined.
# glioblastoma cells [8] = experiment: Western blot of apoptosis markers in whole cell lysates; type: cell-based, human
# Description: Western Blot Analysis. 17008, 15037, 14104s, 14015s, 15049, U87-MG, A172, T98G, and CCF-STTG1 cells were seeded at density of 1.5×10^5 per ml in 6 well plates and treated with various concentration of compounds and whole cell proteins were extracted using RIPA lysis buffer containing 10 mM Tris-HCl (pH 7.4), 150 mM NaCl, 1 mM ethylenediaminetetraacetic acid (EDTA), 1% Triton X-100 (w/v), 0.5% sodium deoxycholate and 0.1% sodium dodecylsulphate (SDS) with protease and phosphatase inhibitor cocktail. Protein concentrations were measured using Lowry's method and equal amounts of protein were separated in 10% and 15% SDS-PAGE and transferred to a Polyvinylidene difluoride (PVDF) membrane. PVDF membranes were incubated overnight at 4° C. with primary antibodies in 5% skimmed milk and incubated for 2-3 hr with secondary antibodies conjugated with horseradish peroxidase (HRP). Membranes were then exposed to HRP-substrate and immune reacted proteins were detected with chemiluminescence reagent.
# as §1
# [9] = test system: vasoactive intestinal peptide (VIP) gene expression in Panc1 cells; experiment: VIP gene expression by quantitative PCR in Panc1 cells
# Description: (§3) The effects of bis-indole and quinoline derivatives on activation of the NR4A2 regulated genes vasoactive intestinal peptide (VIP) was investigated. […] Relative expression levels of VIP were determined by quantitative PCR analysis. Results are expressed as means±SD for at least six separate determinations for each treatment.
# [10] = test system: vasoactive intestinal peptide (VIP) gene expression in Panc28 cells; experiment: VIP gene expression by quantitative PCR in Panc28 cells
# Description: as §3
# NR4A1 LBD = target: T1, NR4A1 LBD (Homo sapiens, UniProt P22736); experiment: NR4A1/bisANS fluorescence binding
# T1 construct: histidine tag
# T1 sequence (P22736 360-595 limits assumed, species assumed): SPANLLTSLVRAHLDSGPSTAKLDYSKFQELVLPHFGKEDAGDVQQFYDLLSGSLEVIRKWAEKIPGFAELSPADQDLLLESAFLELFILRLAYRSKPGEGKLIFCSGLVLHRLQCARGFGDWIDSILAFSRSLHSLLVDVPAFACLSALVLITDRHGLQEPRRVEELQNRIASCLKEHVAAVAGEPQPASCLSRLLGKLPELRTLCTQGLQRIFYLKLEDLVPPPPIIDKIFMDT
# Description: The binding affinity (Kd) and binding stoichiometry (Bmax) of NR4A1/bisANS were determined essentially as described in FEBS Journal, 2014, 281, 2266-2283. For NR4A1/bisANS the binding affinity (Kd) was determined to be […] and the binding stoichiometry (Bmax) was determined to be 0.80 mol bisANS/mol NR4A1. The ability of ligand to displace bisANS was analyzed essentially as described in FEBS Journal, 2014, 281, 2266-2283. Briefly, histidine-tagged NR4A1 LBD (final concentration=0.05 μmon PBS, pH 7.4) was incubated at 25° C. for 3 min in the presence of 5.0 μmol bisANS/L. The bisANS fluorescence spectrum was obtained utilizing a Varian Cary Eclipse fluorescence spectrophotometer with an excitation wavelength of 365 nm (excitation slit width=5 nm) and an emission wavelength range of 400-600 nm (emission slit width=5 nm). Ligand titration was accomplished as described above for direct ligand binding using a stock ligand concentration of 10 mmol ligand/L ethanol. Addition of ethanol only had no effect on NR4A1/bisANS fluorescence (data not shown). […] Ligand/bisANS fluorescence intensity at each ligand concentration was used to correct the NR4A1/bisANS/ligand fluorescence intensity as described in the above reference.
# NR4A2 ligand binding domain (LBD), sequence (P43354 360-595 limits assumed, species assumed): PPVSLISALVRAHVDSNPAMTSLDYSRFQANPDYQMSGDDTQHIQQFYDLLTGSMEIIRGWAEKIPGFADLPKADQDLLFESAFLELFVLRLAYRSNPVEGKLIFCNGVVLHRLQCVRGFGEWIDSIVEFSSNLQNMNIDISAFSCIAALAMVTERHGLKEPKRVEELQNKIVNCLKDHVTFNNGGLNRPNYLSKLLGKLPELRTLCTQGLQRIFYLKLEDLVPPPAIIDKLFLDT
SMILES,"Binding to NR4A2 (quenching of LBD-Trp), in words [1]",Annexin V staining (glioblastoma cells [3]),NR4A2-dependent transactivation (NR4A2 [6]),"Cleavage of caspase 7, 8 and PARP (glioblastoma cells [8])",also measured
Clc1ccccc1C(c1c[nH]c2ccccc12)c1c[nH]c2ccccc12 [CDIM-2-Cl],gave similar results,,,,
Clc1cccc(C(c2c[nH]c3ccccc23)c2c[nH]c3ccccc23)c1 [CDIM-3-Cl],gave similar results,,,,
"Brc1ccc(C(c2c[nH]c3ccccc23)c2c[nH]c3ccccc23)cc1 [CDIM-4-Br, 1-bis(3′indolyl)-1-(p-bromophenyl)methane]",,,,,Induction of VIP in pancreatic cancer cells [2]: induced vasoactive intestinal peptide (VIP)
Clc1ccc(C(c2c[nH]c3ccccc23)c2c[nH]c3ccccc23)cc1 [CDIM-4-Cl],do not quench the LBD-Trp,induced Annexin V staining,activated NR4A2-dependent transactivation,"cleaved caspase 7, 8 and PARP cleavage","Tumor spheroid invasion (15037 cells): inhibited tumor spheroid invasion; MPTP-induced loss of dopaminergic neurons (dopaminergic neurons): inhibited; Induction of VIP in pancreatic cancer cells [2]: induced vasoactive intestinal peptide (VIP); Crossing of the blood-brain barrier [4]: cross the blood-brain barrier; Crossing of the blood-brain barrier ([4]; listed as DIM-C-pPhCl): crosses the blood-brain barrier and accumulates in the brain; NR4A2-dependent transactivation in GBM cells (FIGS. 4A-4C) (NR4A2 [5]): inhibited NR4A2-dependent transactivation; Tumor weight ([7]; 30 mg/kg/day i.p. for three weeks, athymic nude mice bearing U87-MG xenograft): significantly decreased tumor weight; Cleaved caspase 8 in tumors ([7]; 30 mg/kg/day, western blot of tumor lysates vs vehicle controls): significant upregulation of cleaved caspase 8"
Oc1cc(Br)ccc1C(c1c[nH]c2ccccc12)c1c[nH]c2ccccc12 [Ligand 2-OH-4-Br],,induced Annexin V staining,induced NR4A2-dependent transactivation,"cleaved caspase 7, 8 and PARP cleavage","Induction of VIP expression ([9]; bis-indole analogs 5, 10 and 15 μM, CQ 100, 150 and 200 μM, AQ 50, 75 and 100 μM): ≤ 330 fold"
FC(F)(F)c1cc(C(c2c[nH]c3ccccc23)c2c[nH]c3ccccc23)ccc1Cl [Ligand 3-CF3-4-Cl],,induced Annexin V staining,induced NR4A2-dependent transactivation,"cleaved caspase 7, 8 and PARP cleavage",
Cn1cc(C(c2ccc(O)cc2)c2cn(C)c3ccccc23)c2ccccc21 [N—Me-4-OH],,,induced NR4A2-dependent transactivation,,"Induction of VIP, in words [9]: more potent inducer of VIP in Panc1 and Panc28 cells than either CQ or AQ; Induction of VIP, in words [10]: more potent inducer of VIP in Panc1 and Panc28 cells than either CQ or AQ"
O=S(=O)(O)c1cccc2c(-c3ccc(Nc4ccccc4)c4c(S(=O)(=O)O)cccc34)ccc(Nc3ccccc3)c12 [bisANS],,,,,NR4A1/bisANS binding stoichiometry (Bmax) (NR4A1 LBD): 0.80 mol bisANS/mol NR4A1
